Common to all, as to type: cell-based
Test [1] deals with EGFR (Del19/T790M/C797S). The test is described as follows: Cell degradation HTRF assay, H1975-clone #28 cells. Conditions: H1975-clone #28 (Del19/T790M/C797S) cells, 16 h treatment; for DC50: HTRF, read-out: H1975-clone#28 DTC DC50; for H1975-clone#28 DTC Dmax (%): maximum percentage of degradation. Summed up: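 H1975 clones #25 and #28 were treated 16 h at 37° C, 5% CO2 with 8 doses (top 10 uM, 5-fold dilution) in 0.2% DMSO medium. EGFR in lysates read by HTRF (665/620 nm); degradation % relative to DMSO high control; DC50 from 4-parameter fit, Dmax = maximal degradation.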

In test [2] the target is T1, EGFR (L858R/T790M/C797S) (Homo sapiens, UniProt P00533, C797S/L858R/T790M). The test is described as follows: Cell degradation HTRF assay, H1975-clone #25 cells. The settings on record: H1975-clone #25 (L858R/T790M/C797S) cells, 16 h treatment; for DC50: HTRF, read-out: H1975-clone#25 LTC DC50; for Dmax: maximum percentage of degradation, read-out: H1975-clone#25 LTC Dmax (%). As for the experimental part: Cell Degradation of Example 124-189
H1975-#28 and H1975-#25 cells are treated with compounds diluted in 0.2% DMSO cell culture medium on day 2, incubate for 16 h, 37° C., 5% CO2. the final concentration of compounds in all assay is start with 10 uM, 5-fold dilution, total 8 doses were included.
After 16 h treatment, add HTRF lysis buffer to each well; seal the plate and incubate 1 hour at room temperature on a plate shaker; Once the cells are lysed, 16 μL of cell lysate are transferred to a PE 384-well HTRF detection plate; 4 μL of pre-mixed HTRF antibodies are added to each well; Cover the plate with a plate sealer, spin 1000 rpm for 1 min, Incubate overnight at room temperature; Read on BMG PheraStar with HTRF protocol (337 nm-665 nm-620 nm).
The inhibition (degradation) percentage of the compound was calculated by the following equation:
(§1) Inhibition percentage of Compound=100−100×(Signal−low control)/(High control−low control), wherein signal=each test compound group.
(§2) High control=Cell group with added DMSO and without compound, indicating microplate readings without EGFR degradation;
(§3) Dmax is the maximum percentage of inhibition (degradation).
(§4) The IC50 (DC50) value of a compound can be obtained by fitting the following equation
Y=Bottom+(TOP−Bottom)/(1+((IC50/X)^hillslope))
(§5) Wherein, X and Y are known values, and IC50, Hillslope, Top and Bottom are the parameters obtained by fitting with software. Y is the inhibition percentage (calculated from the equation), X is the concentration of the compound; IC50 is the concentration of the compound when the 50% inhibition is reached. The smaller the IC50 value is, the stronger the inhibitory ability of the compound is. Vice versa, the higher the IC50 value is, the weaker the ability the inhibitory ability of the compound is; Hillslope represents the slope of the fitted curve, generally around 1*; Bottom represents the minimum value of the curve obtained by data fitting, which is generally 0%±20%; Top represents the maximum value of the curve obtained by data fitting, which is generally 100%±20%. The experimental data were fitted by calculating and analyzing with Dotmatics data analysis software. When Dmax<50%, DC50 will be automatically assigned as larger than […].

For test [3], the system named is EGFR (Del19/T790M/C797S). The test is described as follows: Cell degradation HTRF assay, BaF3-DTC cells. Conditions: 16 h treatment; for DC50: HTRF; for DTC Dmax (%): maximum percentage of degradation. The procedure:
(§6) Cell Degradation of Example 1-28
(§7) BaF3-LTC (L858R/T790M/C797S) and BaF3-DTC (Del19/T790M/C797S) cells are treated with compounds diluted in 0.2% DMSO cell culture medium and incubate for 16 h, 37° C., 5% CO2. The final concentration of compounds in all assay is start with 10 uM, 4-fold dilution, total 8 doses were included.
(§8) After 16 h treatment, add HTRF lysis buffer to each well; seal the plate and incubate 1 hour at room temperature on a plate shaker; Once the cells are lysed, 16 μL of cell lysate are transferred to a PE 384-well HTRF detection plate; 4 μL of pre-mixed HTRF antibodies are added to each well; Cover the plate with a plate sealer, spin 1000 rpm for 1 min, Incubate overnight at room temperature; Read on BMG PheraStar with HTRF protocol (337 nm-665 nm-620 nm). The inhibition (degradation) percentage of the compound was calculated by the following equation:
as §1, §2, §3, §4
(§9) Y=Bottom+(TOP−Bottom)/(1+((C50/X)^hillslope))
as §5, with “000±20%;” for “0%±20%;”

For test [4], the target named is T1, EGFR (L858R/T790M/C797S). In words: Cell degradation HTRF assay, BaF3-LTC cells. Also on record: expressed in transfected cells; host or cells: BaF3-LTC. The settings on record: 16 h treatment; for DC50: HTRF; for Dmax: maximum percentage of degradation. The procedure:
as §6, §7, §8, §1, §2, §3, §4, §9
as §5, with “000±20%;” for “0%±20%;”

T1 sequence (P00533 25-1210 T790M/C797S/L858R): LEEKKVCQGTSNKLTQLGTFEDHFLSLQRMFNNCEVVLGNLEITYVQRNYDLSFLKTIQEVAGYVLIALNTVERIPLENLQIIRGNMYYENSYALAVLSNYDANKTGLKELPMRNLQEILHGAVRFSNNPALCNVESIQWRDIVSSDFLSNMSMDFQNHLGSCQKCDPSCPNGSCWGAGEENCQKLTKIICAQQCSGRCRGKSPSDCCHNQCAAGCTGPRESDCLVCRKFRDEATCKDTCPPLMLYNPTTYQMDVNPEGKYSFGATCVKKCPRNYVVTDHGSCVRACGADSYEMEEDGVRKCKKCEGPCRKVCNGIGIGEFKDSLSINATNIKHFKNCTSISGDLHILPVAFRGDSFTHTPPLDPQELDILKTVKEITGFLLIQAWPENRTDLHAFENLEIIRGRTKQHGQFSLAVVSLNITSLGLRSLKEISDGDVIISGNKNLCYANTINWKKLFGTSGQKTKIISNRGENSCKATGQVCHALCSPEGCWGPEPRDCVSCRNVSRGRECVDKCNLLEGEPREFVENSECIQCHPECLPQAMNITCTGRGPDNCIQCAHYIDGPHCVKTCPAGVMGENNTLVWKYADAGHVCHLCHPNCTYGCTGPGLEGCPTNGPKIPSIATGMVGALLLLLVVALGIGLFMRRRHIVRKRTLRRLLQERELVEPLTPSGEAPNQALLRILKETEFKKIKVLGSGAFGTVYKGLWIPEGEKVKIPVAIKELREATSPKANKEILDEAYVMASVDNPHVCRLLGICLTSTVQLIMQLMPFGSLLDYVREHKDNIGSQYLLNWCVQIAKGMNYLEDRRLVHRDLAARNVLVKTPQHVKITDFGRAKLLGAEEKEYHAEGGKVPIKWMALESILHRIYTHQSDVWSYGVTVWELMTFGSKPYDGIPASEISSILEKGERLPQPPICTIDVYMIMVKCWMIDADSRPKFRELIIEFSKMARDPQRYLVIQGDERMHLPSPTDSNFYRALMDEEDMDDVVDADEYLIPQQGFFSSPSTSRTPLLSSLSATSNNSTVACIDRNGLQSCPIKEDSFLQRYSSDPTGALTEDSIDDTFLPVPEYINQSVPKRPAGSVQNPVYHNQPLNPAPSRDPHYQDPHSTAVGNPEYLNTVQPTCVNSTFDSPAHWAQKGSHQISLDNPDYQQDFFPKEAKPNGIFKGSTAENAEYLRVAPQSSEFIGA

Regarding `CCc1cc(Nc2ncc(Br)c(Nc3cnc4ccc(C(F)(F)F)cc4c3P(C)(C)=O)n2)c(OC)cc1N1CCC(N2CCN(CCc3cccc4c3n(C)c(=O)n4C3CCC(=O)NC3=O)CC2)CC1` (centres unmarked) [Example 166, 3-(4-(2-(4-(1-(4-((5-bromo-4-((4-(dimethylphosphoryl)-6-(trifluoromethyl)quinolin-3-yl)amino)pyrimidin-2-yl)amino)-2-ethyl-5-methoxyphenyl)piperidin-4-yl)piperazin-1-yl)ethyl)-3-methyl-2-oxo-2,3-dihydro-1H-benzo[d]imidazol-1-yl)piperidine-2,6-dione], in the test on EGFR (Del19/T790M/C797S) [1], the DC50 turned out to be 2.8 nM and the “H1975-clone#28 DTC Dmax (%)” value amounted to 80%. In addition, on EGFR (L858R/T790M/C797S) [2], the DC50 is 4.2 nM and the Dmax worked out at 81%.
For `CCOc1cc(N2CCC(N3CCN(CCc4cccc5c4n(C)c(=O)n5C4CCC(=O)NC4=O)CC3)CC2)c(CC)cc1Nc1ncc(Br)c(Nc2cnc3cc(F)ccc3c2P(C)(C)=O)n1` (centres unmarked) [Example 147, 3-(4-(2-(4-(1-(4-((5-bromo-4-((4-(dimethylphosphoryl)-7-fluoroquinolin-3-yl)amino)pyrimidin-2-yl)amino)-5-ethoxy-2-ethylphenyl)piperidin-4-yl)piperazin-1-yl)ethyl)-3-methyl-2-oxo-2,3-dihydro-1H-benzol[d]imidazol-1-yl) piperidine-2,6-dione], in the test with EGFR (Del19/T790M/C797S) [1], the DC50 turned out to be 0.4 nM and the “H1975-clone#28 DTC Dmax (%)” value was 84%. Also, on EGFR (L858R/T790M/C797S) [2], the DC50 stood at 15.3 nM and the Dmax stood at 77%.
The corresponding values for `CCOc1cc(N2CCC(N3CCN(CCc4cccc5c4n(C)c(=O)n5C4CCC(=O)NC4=O)CC3)CC2)c(CC)cc1Nc1ncc(Br)c(Nc2cnc3ccc(F)cc3c2P(C)(C)=O)n1` (centres unmarked) [Example 124, 3-(4-(2-(4-(1-(4-((5-bromo-4-((4-(dimethylphosphoryl)-6-fluoroquinolin-3-yl)amino)pyrimidin-2-yl)amino)-5-ethoxy-2-ethylphenyl)piperidin-4-yl)piperazin-1-yl)ethyl)-3-methyl-2-oxo-2,3-dihydro-1H-benzol[d]imidazol-1-yl) piperidine-2,6-dione] are 1.4 nM, 73%, 3.4 nM and 77%.
As for `CCc1cc(Nc2ncc(Br)c(Nc3cnc4c(C)cccc4c3P(C)(C)=O)n2)c(OC)cc1N1CCC(N2CCN(CCC3CCN(c4cc(F)c(C5CCC(=O)NC5=O)c(F)c4)CC3)CC2)CC1` (centres unmarked) [Example 8, 3-(4-(4-(2-(4-(1-(4-((5-bromo-4-((4-(dimethylphosphoryl)-8-methylquinolin-3-yl)amino)pyrimidin-2-yl)amino)-2-ethyl-5-methoxyphenyl)piperidin-4-yl)piperazin-1-yl)ethyl)piperidin-1-yl)-2,6-difluorophenyl)piperidine-2,6-dione], in the test on EGFR (Del19/T790M/C797S) [3], it took 11.8 nM to reach half-maximal degradation (DC50) and the “DTC Dmax (%)” value came to 96.88%. Further, on EGFR (L858R/T790M/C797S) [4], the DC50 is 30.2 nM and the Dmax worked out at 89.6%.
Regarding `CCc1cc(Nc2ncc(Br)c(Nc3cnc4ccccc4c3P(C)(C)=O)n2)c(OC)cc1N1CCC(N2CCN(C[C@H]3CCN(c4ccc5c(c4)CN(C4CCC(=O)NC4=O)C5=O)C3)CC2)CC1` (stereo partly drawn) [Example 4, 3-(5-((R)-3-((4-(1-(4-((5-bromo-4-((4-(dimethylphosphoryl)quinolin-3-yl)amino)pyrimidin-2-yl)amino)-2-ethyl-5-methoxyphenyl)piperidin-4-yl)piperazin-1-yl)methyl)pyrrolidin-1-yl)-1-oxoisoindolin-2-yl)piperidine-2,6-dione], in the test on EGFR (Del19/T790M/C797S) [3], the 50% degradation concentration (DC50) was 3.94 nM and the “DTC Dmax (%)” value came out at 91.36%. Further, at EGFR (L858R/T790M/C797S) [4], the DC50 was found to be 7.75 nM and the Dmax worked out at 90.5%.
For `CCc1cc(Nc2ncc(Br)c(Nc3cnc4cccnc4c3P(C)(C)=O)n2)c(OC)cc1N1CCC(N2CCN(CCc3cc(F)c(C4CCC(=O)NC4=O)c(F)c3)CC2)CC1` (centres unmarked) [Example 7, 3-(4-(2-(4-(1-(4-((5-bromo-4-((4-(dimethylphosphoryl)-1,5-naphthyridin-3-yl)amino)pyrimidin-2-yl)amino)-2-ethyl-5-methoxyphenyl)piperidin-4-yl)piperazin-1-yl)ethyl)-2,6-difluorophenyl)piperidine-2,6-dione], in that order: 15.5 nM, 93.86%, 45.3 nM and 82.7%.
On to `CCc1cc(Nc2ncc(Br)c(Nc3cnc4ccccc4c3P(C)(C)=O)n2)c(OC)cc1N1CCC(N2CCN(C(=O)C3CCN(c4ccc5c(c4)C(C)(C)C(=O)N5C4CCC(=O)NC4=O)CC3)CC2)CC1` (centres unmarked) [Example 17, 3-(5-(4-(4-(1-(4-((5-bromo-4-((4-(dimethylphosphoryl)quinolin-3-yl)amino)pyrimidin-2-yl)amino)-2-ethyl-5-methoxyphenyl)piperidin-4-yl)piperazine-1-carbonyl)piperidin-1-yl)-3,3-dimethyl-2-oxoindolin-1-yl)piperidine-2,6-dione], for which, in the test on EGFR (Del19/T790M/C797S) [3], half-maximal degradation (DC50) was put at 1.94 nM and the “DTC Dmax (%)” value was found to be 96.58%. At EGFR (L858R/T790M/C797S) [4], half-maximal degradation (DC50) was put at 3.86 nM and the Dmax is 92.5%.
As for `CCc1cc(Nc2ncc(Br)c(Nc3cnc4ccccc4c3P(C)(C)=O)n2)c(OC)cc1N1CCC(N2CCN(CCc3ccc4c(c3)C3(CC3)C(=O)N4C3CCC(=O)NC3=O)CC2)CC1` (centres unmarked) [Example 24, 3-(5′-(2-(4-(1-(4-((5-bromo-4-((4-(dimethylphosphoryl)quinolin-3-yl)amino)pyrimidin-2-yl)amino)-2-ethyl-5-methoxyphenyl)piperidin-4-yl)piperazin-1-yl)ethyl)-2′-oxospiro[cyclopropane-1,3′-indolin]-1′-yl)piperidine-2,6-dione], in the test with EGFR (Del19/T790M/C797S) [3], it took 2.88 nM to reach half-maximal degradation (DC50) and the “DTC Dmax (%)” value stood at 84.3%. For the same compound, at EGFR (L858R/T790M/C797S) [4], the DC50 came out at 27.5 nM and the Dmax turned out to be 89.6%.

Source of the values: US20240165243A1, “EGFR DEGRADERS AND METHODS OF USE” (BeiGene Switzerland GmbH, priority 2021, published 2024).
